Laboratory results reported in patent US20230373989A1, “N-PHENYLAMINOCARBONYL PYRIDINO-, PYRIMIDINO AND BENZO-TROPANES AS MODULATORS OF GPR65” (PATHIOS THERAPEUTICS LIMITED, priority 2020, published 2023).
Like-named read-outs stand apart in the source and are kept apart here.

Target: T1, human recombinant GPR65 (Homo sapiens, UniProt Q8IYL9)
T1 construct: host or cells: 1321N1 human astrocytoma cells (1321N1-hrGPR65)
Test: Human GPR65 cAMP HTRF antagonist assay
Format: cell-based
Procedure, shortened: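 1321N1 astrocytoma cells stably expressing GPR65 were preincubated with compound for 30 min at room temperature in KRH pH 7.6 with 1 mM IBMX and 200 μM EDTA. They were then stimulated at assay pH 7.2 for 30 min, with controls at pH 7.9. cAMP was read by HTRF (665/620 nm), normalised to controls and fitted by 4-parameter logistic to give IC50.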

[1] = 1321N1-hrGPR65 cells, assay pH 7.2, cAMP HTRF, read-out: hGPR65 IC50 (activity class)

T1 sequence (Q8IYL9 whole entry): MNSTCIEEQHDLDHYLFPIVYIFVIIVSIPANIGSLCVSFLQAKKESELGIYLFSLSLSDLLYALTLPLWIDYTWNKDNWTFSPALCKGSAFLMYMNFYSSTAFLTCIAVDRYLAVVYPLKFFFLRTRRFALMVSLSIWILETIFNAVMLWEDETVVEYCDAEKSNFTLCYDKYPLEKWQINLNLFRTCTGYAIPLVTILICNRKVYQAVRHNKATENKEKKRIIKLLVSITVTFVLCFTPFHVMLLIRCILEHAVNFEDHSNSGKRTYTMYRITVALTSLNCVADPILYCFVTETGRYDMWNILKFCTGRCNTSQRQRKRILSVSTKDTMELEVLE

## O=C(Nc1ccc(Cl)c(Cl)c1)N1C2CCC1c1cnccc1C2 (racemic) [Compound 104, (±)-N-(3,4-Dichlorophenyl)-6,7,8,9-tetrahydro-5H-6,9-epiminocyclohepta[c]pyridine-10-carboxamide]
[1]
  IC50: 500 to 5000 nM

## O=C(Nc1ccc(Cl)c(Cl)c1)N1[C@H]2CC[C@@H]1c1c[nH]c(=O)nc1C2 [Compound 106, (5R,8S)-N-(3,4-Dichlorophenyl)-2-oxo-3,5,6,7,8,9-hexahydro-2H-5,8-epiminocyclohepta[d]pyrimidine-10-carboxamide]
  IC50: < 500 nM

## O=C(Nc1ccc(C(F)(F)F)c(Cl)c1)N1C2CCC1c1ccc(Cl)cc1C2 (racemic) [Compound 71, (±)-2-Chloro-N-(3-chloro-4-(trifluoromethyl)phenyl)-6,7,8,9-tetrahydro-5H-5,8-epiminobenzo[7]annulene-10-carboxamide]
[1]
  IC50: 500 to 5000 nM

## O=C(Nc1cc(Cl)c(C(F)(F)F)cc1F)N1C2CCC1c1ccc(F)nc1C2 (racemic) [Compound 182, (±)-N-(5-Chloro-2-fluoro-4-(trifluoromethyl)phenyl)-2-fluoro-6,7,8,9-tetrahydro-5H-5,8-epiminocyclohepta[b]pyridine-10-carboxamide]
  IC50: < 500 nM

## O=C(Nc1cc(Cl)c(C(F)(F)F)cc1F)N1C2CCC1c1c[nH]c(=O)c(F)c1C2 (racemic) [Compound 138, (±)-N-(5-Chloro-2-fluoro-4-(trifluoromethyl)phenyl)-4-fluoro-3-oxo-3,5,6,7,8,9-hexahydro-2H-6,9-epiminocyclohepta[c]pyridine-10-carboxamide]
  IC50: < 500 nM

## O=C(Nc1ccc(Cl)c(Cl)c1)N1C2CCC1c1cnc(F)nc1C2 (racemic) [Compound 46, (±)-N-(3,4-Dichlorophenyl)-2-fluoro-6,7,8,9-tetrahydro-5H-5,8-epiminocyclohepta[d]pyrimidine-10-carboxamide]
  IC50: < 500 nM

## O=C(Nc1cc(C(F)(F)F)c(Cl)cc1F)N1[C@H]2CC[C@@H]1c1c[nH]c(=O)cc1C2 [Compound 129, (6S,9R)-N-(4-Chloro-2-fluoro-5-(trifluoromethyl)phenyl)-3-oxo-3,5,6,7,8,9-hexahydro-2H-6,9-epiminocyclohepta[c]pyridine-10-carboxamide]
  IC50: < 500 nM

## O=C(Nc1cccc(-c2ccccc2)c1)N1[C@H]2CC[C@@H]1c1ccnc(F)c1C2 [Compound 184, (5R,8S)-N-([1,1′-Biphenyl]-3-yl)-1-fluoro-6,7,8,9-tetrahydro-5H-5,8-epiminocyclohepta[c]pyridine-10-carboxamide]
  IC50: < 500 nM

## O=C(Nc1ccc(C(F)(F)F)cc1F)N1[C@H]2CC[C@@H]1c1ccnc(F)c1C2 [Compound 120, (5R,8S)-1-Fluoro-N-(2-fluoro-4-(trifluoromethyl)phenyl)-6,7,8,9-tetrahydro-5H-5,8-epiminocyclohepta[c]pyridine-10-carboxamide]
  IC50: < 500 nM

## O=C(Nc1cc(Cl)cc(Cl)c1)N1C2CCC1c1cncnc1C2 (racemic) [Compound 4, (±)-N-(3,5-Dichlorophenyl)-6,7,8,9-tetrahydro-5H-5,8-epiminocyclohepta[d]pyrimidine-10-carboxamide]
[1]
  IC50: 500 to 5000 nM

## O=C(Nc1ccc(Cl)c(Cl)c1)N1C2CCC1c1cccnc1C2 (racemic) [Compound 87, (±)-N-(3,4-Dichlorophenyl)-6,7,8,9-tetrahydro-5H-5,8-epiminocyclohepta[b]pyridine-10-carboxamide]
[1]
  IC50: > 5000 nM

## O=C(Nc1ccc(Cl)c(Cl)c1)N1C2CCC1c1cnc(C(F)(F)F)nc1C2 (racemic) [Compound 24, (±)-N-(3,4-Dichlorophenyl)-2-(trifluoromethyl)-6,7,8,9-tetrahydro-5H-5,8-epiminocyclohepta[d]pyrimidine-10-carboxamide]
[1]
  IC50: > 5000 nM

## O=C(Nc1ccc(Cl)c(Cl)c1)N1C2CCC1c1ccncc1C2 (racemic) [Compound 36, (±)-N-(3,4-Dichlorophenyl)-6,7,8,9-tetrahydro-5H-5,8-epiminocyclohepta[c]pyridine-10-carboxamide]
  IC50: < 500 nM

## O=C(Nc1ccc(C(F)(F)F)c(Cl)c1)N1C2CCC1c1c[nH]c(=O)nc1C2=NO (racemic) [Compound 47, (±)-N-(3-Chloro-4-(trifluoromethyl)phenyl)-9-(hydroxyimino)-2-oxo-3,5,6,7,8,9-hexahydro-2H-5,8-epiminocyclohepta[d]pyrimidine-10-carboxamide]
[1]
  IC50: 500 to 5000 nM

## O=C(Nc1ccc(C(F)(F)F)cc1)N1C2CCC1c1cncnc1C2 (racemic) [Compound 1, (±)-N-(4-(Trifluoromethyl)phenyl)-6,7,8,9-tetrahydro-5H-5,8-epiminocyclohepta[d]pyrimidine-10-carboxamide]
[1]
  IC50: 500 to 5000 nM

## N#Cc1ccc(NC(=O)N2C3CCC2c2ccnc(F)c2C3)cc1 (racemic) [Compound 176, (±)-N-(4-Cyanophenyl)-1-fluoro-6,7,8,9-tetrahydro-5H-5,8-epiminocyclohepta[c]pyridine-10-carboxamide]
[1]
  IC50: 500 to 5000 nM

## O=C(Nc1cccc(Br)c1)N1C2CCC1c1ccnc(F)c1C2 (racemic) [Compound 170, (±)-N-(3-Bromophenyl)-1-fluoro-6,7,8,9-tetrahydro-5H-5,8-epiminocyclohepta[c]pyridine-10-carboxamide]
  IC50: < 500 nM

## O=C(Nc1ccc(Cl)c(Cl)c1)N1[C@@H]2CC[C@H]1c1ccnc(F)c1C2 [Compound 110, (5S,8R)-N-(3,4-Dichlorophenyl)-1-fluoro-6,7,8,9-tetrahydro-5H-5,8-epiminocyclohepta[c]pyridine-10-carboxamide]
[1]
  IC50: > 5000 nM

## O=C(Nc1cc(Cl)c(Cl)cc1F)N1[C@H]2CC[C@@H]1c1c(F)cncc1C2 [Compound 190, (5R,8S)-N-(4,5-Dichloro-2-fluorophenyl)-4-fluoro-6,7,8,9-tetrahydro-5H-5,8-epiminocyclohepta[c]pyridine-10-carboxamide]
  IC50: < 500 nM

## O=C(Nc1cc(Cl)c(C(F)(F)F)cc1F)N1[C@@H]2CC[C@H]1c1c[nH]c(=O)c(F)c1C2 [Compound 147, (6R,9S)-N-(5-Chloro-2-fluoro-4-(trifluoromethyl)phenyl)-4-fluoro-3-oxo-3,5,6,7,8,9-hexahydro-2H-6,9-epiminocyclohepta[c]pyridine-10-carboxamide]
  IC50: < 500 nM

## O=C(Nc1ccc(C(F)(F)F)c(Cl)c1)N1C2CCC1c1ccncc1C2 (racemic) [Compound 35, (±)-N-(3-Chloro-4-(trifluoromethyl)phenyl)-6,7,8,9-tetrahydro-5H-5,8-epiminocyclohepta[c]pyridine-10-carboxamide]
  IC50: < 500 nM

## O=C(Nc1ccc(C(F)(F)F)c(Cl)c1)N1C2CCC1c1ncncc1C2 (racemic) [Compound 18, (±)-N-(3-Chloro-4-(trifluoromethyl)phenyl)-6,7,8,9-tetrahydro-5H-6,9-epiminocyclohepta[d]pyrimidine-10-carboxamide]
  IC50: < 500 nM

## O=C(Nc1cc(Cl)c(Br)cc1F)N1[C@H]2CC[C@@H]1c1c[nH]c(=O)cc1C2 [Compound 141, (6S,9R)-N-(4-Bromo-5-chloro-2-fluorophenyl)-3-oxo-3,5,6,7,8,9-hexahydro-2H-6.9-epiminocyclohepta[c]pyridine-10-carboxamide]
  IC50: < 500 nM

## O=C(Nc1cc(Cl)c(C(F)(F)F)cc1F)N1[C@H]2CC[C@@H]1c1c[nH]c(=O)c(F)c1C2 [Compound 146, (6S,9R)-N-(5-Chloro-2-fluoro-4-(trifluoromethyl)phenyl)-4-fluoro-3-oxo-3,5,6,7,8,9-hexahydro-2H-6,9-epiminocyclohepta[c]pyridine-10-carboxamide]
  IC50: < 500 nM

## O=C(Nc1cc(Cl)c(Cl)cc1F)N1[C@H]2CC[C@@H]1c1ccnc(F)c1C2 [Compound 79, (5R,8S)-N-(4,5-Dichlroo-2-fluorophenyl)-1-fluoro-6,7,8,9-tetrahydro-5H-5,8-epiminocyclohepta[c]pyridine-10-carboxamide]
  IC50: < 500 nM

## O=C(Nc1ccc(Cl)c(Cl)c1)N1[C@H]2CC[C@@H]1c1ccncc1C2 [Compound 108, (5R,8S)-N-(3,4-Dichlorophenyl)-6,7,8,9-tetrahydro-5H-5,8-epiminocyclohepta[c]pyridine-10-carboxamide]
  IC50: < 500 nM

## O=C(Nc1ccc(-c2ccccc2)cc1)N1[C@H]2CC[C@@H]1c1c[nH]c(=O)cc1C2 [Compound 191, (6S,9R)-N-([1,1′-Biphenyl]-4-yl)-3-oxo-3,5,6,7,8,9-hexahydro-2H-6,9-epiminocyclohepta[c]pyridine-10-carboxamide]
  IC50: < 500 nM

## O=C(Nc1ccc(Cl)c(Cl)c1)N1[C@@H]2CC[C@H]1[C@@H](F)c1cc(F)ncc12 [Compound 140, (5S,6S,9R)-N-(3,4-Dichlorophenyl)-3,5-difluoro-6,7,8,9-tetrahydro-5H-6,9-epiminocyclohepta[c]pyridine-10-carboxamide]
  IC50: < 500 nM

## CC(C)(C)Nc1cc2c(cn1)CC1CCC2N1C(=O)Nc1ccc(Cl)c(Cl)c1 (racemic) [Compound 66, (±)-3-(tert-Butylamino)-N-(3,4-dichlorophenyl)-6,7,8,9-tetrahydro-5H-5,8-epiminocyclohepta[c]pyridine-10-carboxamide]
[1]
  IC50: 500 to 5000 nM

## O=C(Nc1cc(Cl)c(Cl)cc1O)N1[C@H]2CC[C@@H]1c1ccnc(F)c1C2 [Compound 149, (5R,8S)—N-(4,5-Dichloro-2-hydroxyphenyl)-1-fluoro-6,7,8,9-tetrahydro-5H-5,8-epiminocyclohepta[c]pyridine-10-carboxamide]
  IC50: < 500 nM

## O=C(Nc1ccc(C(F)(F)F)c(Cl)c1)N1C2CCC1c1cccc(F)c1C2 (racemic) [Compound 84, (±)-N-(3-Chloro-4-(trifluoromethyl)phenyl)-1-fluoro-6,7,8,9-tetrahydro-5H-5,8-epiminobenzo[7]annulene-10-carboxamide]
[1]
  IC50: 500 to 5000 nM

## O=C(Nc1ccc(-c2ccccc2)cc1)N1C2CCC1c1ccnc(F)c1C2 (racemic) [Compound 158, (±)-N-([1,1′-Biphenyl]-4-yl)-1-fluoro-6,7,8,9-tetrahydro-5H-5,8-epiminocyclohepta[c]pyridine-10-carboxamide]
  IC50: < 500 nM
